Experimental data from US10597366B2, “Aryl ethers and uses thereof” (Peloton Therapeutics, Inc., priority 2013, dated 2020).
Like-named read-outs stand apart in the source and are kept apart here.

System: 786-O-Hif-Luc cells (luciferase gene driven by multiple HIF responsive elements)
Assay: Luciferase Assay
Type: cell-based
Settings: 24 h, read-out: Mean Luciferease EC50
Description: A pool of infected cells were then selected against 2 μg/mL of puromycin (P8833, Sigma) for 10 days followed by limited dilution to select single clones.
Each concentration was tested in triplicate. After about 24 hours, luciferase activity was determined using ONE-Glo Luciferase Assay Reagent (E6110, Promega) following the manufacturer's recommended procedure. EC50 were calculated by using Dotmatics software.

[1] = 786-O-Hif-Luc cells, about 24 hours

Row | EC50 | EC50 [1] | Structure (SMILES)
1 | 120 nM | – | CNS(=O)(=O)c1ccc(Oc2cc(F)cc(C#N)c2)c2c1[C@H](O)C(F)(F)C2 [Compound 254, (S)-7-(3-Cyano-5-fluorophenoxy)-2,2-difluoro-3-hydroxy-N-methyl-2,3-dihydro-1H-indene-4-sulfonamide]
2 | 23 nM | – | CS(=O)(=O)c1ccc(Oc2cc(F)cc(C#N)c2)c2c1[C@H](O)C(F)(F)C2 [Compound 163, (S)-3-((2,2-Difluoro-1-hydroxy-7-(methylsulfonyl)-2,3-dihydro-1H-inden-4-yl)oxy)-5-fluorobenzonitrile]
3 | – | 26 nM | O=S(=O)(c1ccc(Oc2ccc(F)c(Cl)c2)c2c1[C@H](O)C(F)(F)C2)C(F)(F)F [Compound 221, (S)-4-(3-Chloro-4-fluorophenoxy)-2,2-difluoro-7-((trifluoromethyl)sulfonyl)-2,3-dihydro-1H-inden-1-ol]
4 | – | 160 nM | N#Cc1cncc(Oc2ccc(S(=O)(=O)C(F)F)c3c2CC(F)(F)[C@H]3O)c1 [Compound 27, (S)-5-((7-((Difluoromethyl)sulfonyl)-2,2-difluoro-1-hydroxy-2,3-dihydro-1H-inden-4-yl)oxy)nicotinonitrile]
5 | – | 68 nM | O=S(=O)(c1ccc(Oc2ccc(F)c(Cl)c2)c2c1[C@H](O)C(F)(F)C2)C(F)F [Compound 26, (S)-4-(3-Chloro-4-fluorophenoxy)-7-((difluoromethyl)sulfonyl)-2,2-difluoro-2,3-dihydro-1H-inden-1-ol]
6 | – | 6 nM | O=S(=O)(CF)c1ccc(Oc2cc(F)cc(Cl)c2)c2c1[C@H](O)C(F)(F)C2 [Compound 65, (S)-4-(3-Chloro-5-fluorophenoxy)-2,2-difluoro-7-((fluoromethyl)sulfonyl)-2,3-dihydro-1H-inden-1-ol]
7 | – | 1650 nM | O=S(=O)(c1ccc(Oc2cc(F)c(F)c3[nH]ncc23)c2c1C(O)C(F)(F)C2)C(F)(F)F (centres unmarked) [Compound 261, 4-((6,7-Difluoro-1H-indazol-4-yl)oxy)-2,2-difluoro-7-((trifluoromethyl)sulfonyl)-2,3-dihydro-1H-inden-1-ol]
8 | – | 1270 nM | O=S(=O)(c1ccc(Oc2ccc(F)c(F)c2)c2c1C(O)CC2)C(F)(F)F (centres unmarked) [Compound 214, 4-(3,4-Difluorophenoxy)-7-((trifluoromethyl)sulfonyl)-2,3-dihydro-1H-inden-1-ol]
9 | – | 480 nM | CS(=O)(=O)c1ccc(Oc2cncc(Br)c2)c2c1[C@H](O)C(F)(F)C2 [Compound 324, (S)-4-((5-Bromopyridin-3-yl)oxy)-2,2-difluoro-7-(methylsulfonyl)-2,3-dihydro-1H-inden-1-ol]
10 | – | 2730 nM | O=S(=O)(c1ccc(Oc2c(F)ccc3[nH]ncc23)c2c1[C@H](O)C(F)(F)C2)C(F)(F)F [Compound 264, (S)-2,2-Difluoro-4-((5-fluoro-1H-indazol-4-yl)oxy)-7-((trifluoromethyl)sulfonyl)-2,3-dihydro-1H-inden-1-ol]
11 | 110 nM | – | N#Cc1cc(F)cc(Oc2ccc(S(=O)(=O)C(F)(F)F)c3c2CC[C@H]3O)c1 [Compound 57, (R)-3-Fluoro-5-((1-hydroxy-7-((trifluoromethyl)sulfonyl)-2,3-dihydro-1H-inden-4-yl)oxy)benzonitrile]
12 | 16 nM | – | N#Cc1cc(Cl)cc(Oc2ccc(S(=O)(=O)CF)c3c2CC(F)(F)[C@H]3O)c1 [Compound 167, (S)-3-Chloro-5-((2,2-difluoro-7-((fluoromethyl)sulfonyl)-1-hydroxy-2,3-dihydro-1H-inden-4-yl)oxy)benzonitrile]
13 | – | 63 nM | CS(=O)(=O)c1ccc(Oc2cccc(C#N)c2)c2c1[C@H](O)C(F)(F)C2 [Compound 162, 3-[(1S)-2,2-Difluoro-1-hydroxy-7-methylsulfonyl-indan-4-yl]oxybenzonitrile]
14 | – | 150 nM | N#Cc1cncc(Oc2ccc(S(=N)(=O)C(F)(F)F)c3c2CC(F)(F)[C@H]3O)c1 (stereo partly drawn) [Compound 314, 5-(((1S)-2,2-difluoro-1-hydroxy-7-(S-(trifluoromethyl)sulfonimidoyl)-2,3-dihydro-1H-inden-4-yl)oxy)nicotinonitrile]
15 | 170 nM | – | N#Cc1cc(F)cc(Oc2ccc(S(=O)(=O)C(F)(F)F)c3c2CC(F)(F)[C@H]3N)c1 [Compound 290, 3-[(1S)-1-amino-2,2-difluoro-7-(trifluoromethylsulfonyl)indan-4-yl]oxy-5-fluoro-benzonitrile]
16 | – | 180 nM | Cn1cc(Oc2ccc(S(=O)(=O)C(F)(F)F)c3c2CC(F)(F)[C@H]3O)cn1 [Compound 224, (S)-2,2-Difluoro-4-((1-methyl-1H-pyrazol-4-yl)oxy)-7-((trifluoromethyl)sulfonyl)-2,3-dihydro-1H-inden-1-ol]
17 | – | 920 nM | O=S(=O)(c1ccc(Oc2cccc3[nH]ncc23)c2c1C(O)C(F)(F)C2)C(F)(F)F (centres unmarked) [Compound 243]

Further lines, the compound ahead of its results:

Row | Structure (SMILES) | EC50 | EC50 [1]
18 | N#Cc1cc(F)cc(Oc2ccc(S(=O)(=O)C(F)F)c3c2CC[C@H]3O)c1 [Compound 155, 3-[(1R)-7-(difluoromethylsulfonyl)-1-hydroxy-indan-4-yl]oxy-5-fluoro-benzonitrile] | 130 nM | –
19 | O=S(=O)(c1ccc(Oc2cc(F)cc(F)c2)c(Cl)c1CO)C(F)F [Compound 168, (2-Chloro-6-((difluoromethyl)sulfonyl)-3-(3,5-difluorophenoxy)phenyl)methanol] | – | 310 nM
20 | N#Cc1cc(F)cc(Oc2ccc(S(=O)(=O)C(F)(F)F)c3c2[C@@H](N)C[C@H]3O)c1 (relative stereo) [Compound 279, 3-((cis-3-amino-1-hydroxy-7-((trifluoromethyl)sulfonyl)-2,3-dihydro-1H-inden-4-yl)oxy)-5-fluorobenzonitrile] | – | 5900 nM
21 | O=S(=O)(c1ccc(Oc2cncc(Cl)c2)c2c1[C@H](O)CC2)C(F)F [Compound 3, (R)-4-((5-chloropyridin-3-yl)oxy)-7-((difluoromethyl)sulfonyl)-2,3-dihydro-1H-inden-1-ol] | – | 960 nM
22 | O=S(=O)(c1ccc(Oc2cncc(F)c2)c2c1[C@H](O)CC2)C(F)F [Compound 5, (R)-7-((difluoromethyl)sulfonyl)-4-((5-fluoropyridin-3-yl)oxy)-2,3-dihydro-1H-inden-1-ol] | – | 420 nM
23 | N#Cc1cc(F)cc(Oc2ccc(S(=O)(=O)C(F)(F)F)cc2C#N)c1 [Compound 120, 2-(3-Cyano-5-fluorophenoxy)-5-((trifluoromethyl)sulfonyl)benzonitrile] | – | 7400 nM
24 | O=S(=O)(c1ccc(Oc2ccc(F)c(Cl)c2)c2c1[C@H](O)CC2)C(F)F [Compound 157, (1R)-4-(3-Chloro-4-fluoro-phenoxy)-7-(difluoromethylsulfonyl)indan-1-ol] | – | 2500 nM
25 | CS(=O)(=O)c1ccc(Oc2cc(F)cc(C#N)c2)c2c1[C@H](O)[C@H](F)[C@H]2F [Compound 294, 3-[(1S,2S,3S)-2,3-difluoro-1-hydroxy-7-methylsulfonyl-indan-4-yl]oxy-5-fluoro-benzonitrile] | – | 1000 nM
26 | N#Cc1cc(F)cc(Oc2ccc(S(=O)(=O)CF)c3c2CC[C@H]3O)c1 [Compound 62, (R)-3-Fluoro-5-((7-((fluoromethyl)sulfonyl)-1-hydroxy-2,3-dihydro-1H-inden-4-yl)oxy)benzonitrile] | – | 180 nM
27 | N#Cc1cc(F)cc(Oc2ccc(S(=O)(=O)C(F)(F)F)cc2Br)c1 [Compound 118, 3-(2-Bromo-4-((trifluoromethyl)sulfonyl)phenoxy)-5-fluorobenzonitrile] | – | 1500 nM
28 | N#Cc1cccc(Oc2ccc(S(=O)(=O)C(F)F)c(CO)c2Cl)c1 [Compound 43, 3-(2-Chloro-4-((difluoromethyl)sulfonyl)-3-(hydroxymethyl)phenoxy)benzonitrile] | – | 790 nM
29 | O[C@@H]1CCc2c(Oc3cc(F)cc(F)c3)ccc(C(F)(F)F)c21 [Compound 58, (R)-4-(3,5-Difluorophenoxy)-7-(trifluoromethyl)-2,3-dihydro-1H-inden-1-ol] | – | 160 nM
30 | Cc1c(Oc2cc(F)cc(Cl)c2)ccc(S(=O)(=O)C(F)(F)F)c1Cl [Compound 143, 3-Chloro-1-(3-chloro-5-fluoro-phenoxy)-2-methyl-4-(trifluoromethylsulfonyl)benzene] | – | 1200 nM
31 | CS(=O)(=O)c1ccc(Oc2cc(F)cc(C#N)c2)c(C(F)F)c1C#N [Compound 94, 3-(3-Cyano-5-fluorophenoxy)-2-(difluoromethyl)-6-(methylsulfonyl)benzonitrile] | – | 760 nM
32 | CS(=O)(=O)c1ccc(Oc2cc(F)cc(Cl)c2)c(C(F)F)c1C#N [Compound 92, 3-(3-Chloro-5-fluorophenoxy)-2-(difluoromethyl)-6-(methylsulfonyl)benzonitrile] | – | 490 nM
33 | O=C1c2c(S(=O)(=O)C(F)F)ccc(Oc3cncc(Cl)c3)c2CC1(F)F [Compound 182, 4-((5-Chloropyridin-3-yl)oxy)-7-((difluoromethyl)sulfonyl)-2,2-difluoro-2,3-dihydro-1H-inden-1-one] | – | 4000 nM
34 | N#Cc1cc(F)cc(Oc2ccc(S(N)(=O)=O)c3c2[C@@H](F)[C@@H](F)[C@H]3O)c1 [Compound 336, (1R,2S,3S)-7-(3-cyano-5-fluoro-phenoxy)-1,2-difluoro-3-hydroxy-indane-4-sulfonamide] | – | 67 nM
35 | N#Cc1cc(F)cc(Oc2ccc(S(=O)(=O)C(F)F)c3c2CCC3F)c1 (centres unmarked) [Compound 202, 3-((7-((Difluoromethyl)sulfonyl)-1-fluoro-2,3-dihydro-1H-inden-4-yl)oxy)-5-fluorobenzonitrile] | – | 3600 nM
36 | O=S(=O)(c1ccc(Oc2cc(F)cc(Cl)c2)c2c1[C@H](O)CC2)C(F)(F)F [Compound 56, (R)-4-(3-Chloro-5-fluorophenoxy)-7-((trifluoromethyl)sulfonyl)-2,3-dihydro-1H-inden-1-ol] | – | 68 nM
37 | CS(=O)(=O)c1ccc(Oc2cc(F)cc(C#N)c2)c2c1[C@H](O)C[C@@H]2F [Compound 295, 3-fluoro-5-[(1R,3S)-3-fluoro-1-hydroxy-7-methylsulfonyl-indan-4-yl]oxy-benzonitrile] | – | 390 nM
38 | CCS(=O)(=O)c1ccc(Oc2cc(F)cc(Cl)c2)c2c1C(O)CC2 (centres unmarked) [Compound 91, 4-(3-Chloro-5-fluorophenoxy)-7-(ethylsulfonyl)-2,3-dihydro-1H-inden-1-ol] | – | 2300 nM
